Source: patent publication EP0066415A2, “N-(arylthioalkyl)-N'-(aminoalkyl)ureas” (A.H. ROBINS COMPANY, INCORPORATED, priority 1981, dated 1982)

What was measured:
[1] = tested on: Coronary Artery Ligation Induced Arrhythmias; assay: Coronary artery ligation induced arrhythmias; type: in vivo, Adult mongrel dogs; conditions: I.V.; Coronary Artery Ligation Induced arrhythmia; conscious dogs; infusion into saphenous vein at 0.5 mg/kg/min
Protocol: Adult mongrel dogs which were in the conscious state were used for the test and cardiac arrhythmias were induced by prior (22-24 hr) surgical preparation in which blood flow through a coronary artery was occluded by use of a constrictor device as reported by Smith et al, 1973. A Grass Model 79 polygraph was used for recording the electrocardiogram (Grass 7P4 preamplifier).
The test compound was administered by infusion (Harvard Model 942 Infusion Pump) into a sapheneous vein to one group of dogs at a rate of 0.5 mg/kg/min. Concentration of compound was adjusted according to the weight of the dog to allow a volume of infusion of 0.5 ml/min. The test compound was administered orally by gavage to another group of dogs at dose levels of 10 to 40 mg/kg. The test compound was prepared in distilled water to give a total volume of 20 ml. Following the administration of the test compound, the heart rate, number of ectopic cardiac beats per min, and the percent ectopic beats (ectopic beats/BR X100) were recorded at 15 min. intervals. The compound was considered active if it abolished the ectopic ventricular frequency and caused a return to normal sinus rhythm within 2 hours of administration.

[2] = tested on: Ouabain Induced Arrhythmias; assay: Ouabain induced arrhythmias, correction by i.v. infusion; type: in vivo, adult mongrel dogs; conditions: Ouabain-Induced arrhythmia, dogs under barbiturate anesthesia, infusion into femoral vein at 1 mg/kg/min
Protocol: correction of existing cardiac arrhythmias of ventri- cular origin was carried out on (1) adult mongrel dogs which were under barbiturate anesthesia during the test. A Grass Model 7 polygraph was used for recording femoral arterial blood pressure (Statham P23AC transducer) and the electrocardiogram (Grass 7P4 preamplifier). Ouabain was given intravenously in an initial dose of 40 µg/kg and in a second dose of […] 30 minutes after the first dose and in subsequent doses of 10 µg/kg which were repeated at 1.5 min. intervals as required for producing cardiac arrhythmias that persisted for at least 15 minutes. When the arrhythmias were established, the test compounds were administered by infusion (Harvard Model 942 Infusion Pump) into a femoral vein at a rate of 1 mg/kg/min. Concentration of compound was adjusted according to the weight of the dog to allow a volume infusion of 1 ml/min. The compound was considered to be active as an antiarrhythmic agent if reversion to the sinus rhythm occurred and this was maintained for at least 30 min.

**Q.** “N'-[2-(Diethylamino)ethyl]-N-(1-methylethyl)-N[2-(phenylsulphonyl)ethyl]urea maleate[1:1] [Example 9]” was tested. Which “Correcting Dose Range” value [1] did it give?
**A.** 2 to 5 mg/kg

**Q.** What about the “Correcting Dose Range” value [2] of the same substance?
**A.** 4 to 15 mg/kg
